The values below come from article PMC8631675, “Neuroprotective effects of some epigenetic modifying drugs’ on Chlamydia pneumoniae-induced neuroinflammation: A novel model” (PLoS ONE, 2021).

Read-outs that look alike come from different tables or passages of the source.

As usually defined, the IC50 is the concentration that gives 50% inhibition.

The subject of one test is SH-SY5Y cells. Kind of test: Total ROS/Superoxide detection. It is filed as cell-based, human. As for the experimental part: The Total ROS/Superoxide Detection Kit (ENZ-51010, Enzo) was used according to the kit process for evaluating the protective effects of the treatment groups on SH-SY5Y cells seeded at a 2x10^4 density per well in 96-well plates and Aβ was applied. ROS inhibitor N-acetyl cysteine (NAC) was applied at 5 mM concentration to negative control groups 30 minutes before the experiment and after incubation, 100 μL of “ROS/Superoxide Detection Solution” was added to the wells in the kit. The same procedure was done without the application of ROS inhibitor. Fluorometric analysis of stained cells was analyzed with Cytation 3 Cell Imaging Multi-Mode Reader (BioTek) using 490/525 nm and 550/620 nm filter sets.

For test [1], the system named is differentiated SH-SY5Y cells. Kind of test: Annexin V-PI staining of Aβ-induced cell death, flow cytometry. It is filed as cell-based, human. Particulars: pretreatment (drugs 100 nM; LPS 100 ng/ml + IFN-γ; CFS 1 μg/ml + IFN-γ) + 5 μM Aβ 24 h. Here is the method: To determine neuronal apoptosis associated with Aβ exposure, 25x10^3 differentiated SH-SY5Y cells were seeded in 24-well plates and Aβ was applied. After 24 h, cells were trypsinized and staining was performed according to the CF 488A Annexin V and PI Apoptosis Kit (Biotium, USA, Cat. No: 30061) protocol. After washing the cells with 1xPBS, the working solution was prepared by diluting the PI with Annexin V binding buffer included in the kit. 5 μl Annexin V and 2 μl PI working solution were added to the centrifuge tubes and binded with 100 μl Annexin V binding buffer. After the samples were incubated for 30 minutes on ice and in the dark, 400 μl of Annexin V binding buffer was added to each tube and the samples were measured and analyzed in a BD Accuri™ C6 flow cytometry device.
Background: Flow cytometry measures light scatter and fluorescence of single cells or particles in a stream.

The next test relates to motor neurons. Further details: method as in PMID 23900692. The note with it: inhibiting DNMT catalytic activity; cited from earlier work.
Test [2] has as its system differentiated SH-SY5Y cells. Kind of test: Cell proliferation (cytotoxicity) analysis with xCELLigence, SH-SY5Y. It is filed as cell-based, human. Here is the method: (§1) Cell proliferation analysis was performed with xCELLigence Real-Time Cell Analysis System to assess TSA, RG108, givinostat, and rifampin concentrations for use in both models. Differentiated SH-SY5Y and HMC3 microglia cells were seeded at a 5x10^3 density per well and incubated 24 h until CI values reached a log phase. The system stopped at the end of 24 h, 100, 10 and 1 μM TSA, givinostat, RG108 and rifampin were applied on current media and the cell viability was tracked. […] Simultaneously, slope plots were drawn using the CI values at 24 and 48 hours, and the statistical significance of the values discovered by assuming the average CI values of the control wells to be 100% was calculated.

Test [3] deals with differentiated SH-SY5Y cells. The test can be described thus: Cell viability against Aβ-induced neurotoxicity, xCELLigence. It is filed as cell-based, human. Particulars: 24 h pretreatment (drugs 100 nM; CFS 1 μg/ml + IFN-γ; LPS 100 ng/ml + IFN-γ), then 5 μM Aβ (1–42) aggregates 24 h. As for the experimental part:
Pathological deterioration in AD is mainly associated with overproduction of the Aβ peptide and the Aβ (1–42) variant is the toxic form that is more predominant in Alzheimer’s patients. In this study, a modified oligomeric Aβ (1–42) neurotoxicity analysis protocol was applied in order to elucidate the effects of treatment groups on SH-SY5Y cell viability in the presence of Aβ [56]. In order to model Aβ-induced neurotoxicity in vitro, an oligomeric form of the Aβ1–42 peptide was prepared by diluting with ice-cold Ham’s F12 Nutrient Mixture medium dissolved in PBS containing 0.02 M NaOH at a final concentration of 50 μM and kept in a 37°C incubator for 7 days to form peptide aggregates prior to the experiments. 5x10^3 SH-SY5Y cells were differentiated inside the xCELLigence instrument for 5 days and treated with 100 nM TSA, RG108, givinostat, rifampin; 100 ng/ml LPS+IFN-ɣ or 1 μg/ml CFS+IFN-ɣ for 24 h in order to evaluate neuroprotection. The co-culture was performed in the same way as the neuroinflammation model. Neurotoxicity was obtained instead of neuroinflammation by diluting to 5 μM with fresh medium and adding Aβ1–42 aggregates to the wells for 24 h in 100 μl of medium. Cell viability data was then monitored for 24 h and analyzed within the instrument.

For a further test, the system named is HMC3 microglia cells. Kind of test: Cell proliferation (cytotoxicity) analysis with xCELLigence, HMC3. It is filed as cell-based, human. As for the experimental part: as §1

On to `O=C(O)C(Cc1c[nH]c2ccccc12)N1C(=O)c2ccccc2C1=O` (stereo not shown) [RG108], for which the “Increase of total amount of ROS compared to the control group, with NAC” value in the test with SH-SY5Y cells (30 minutes NAC 5 mM, treated (drugs 100 nM; LPS 100 ng/ml; CFS 1 μg/ml, with IFN-γ) prior to Aβ exposure) is reported as 4.29%. The “Decrease of total ROS amount according to the Aβ group” value in the test with SH-SY5Y cells (cells treated (drugs 100 nM; LPS 100 ng/ml; CFS 1 μg/ml, with IFN-γ) before exposure to Aβ, without NAC) is reported as 52.61%. Besides, the “Decrease of total amount of ROS compared to the control group” value in the test on SH-SY5Y cells (cells treated with compounds (100 nM) before exposure to Aβ, without NAC) is given as 9.03%. Besides, in test [1] (control 1.6%), the “Necrotic effect (Q5-UL)” value came out at 6.6%. Also, in test [1] (control 1.9%), the “Apoptotic effect (early apoptosis + late apoptosis)” value is listed as 4.3%. Also, the “Percentage of living cells (Live)” value in test [1] (control 96.5%) is given as 89.1%. The “Effect on motor neurons” value in the test on motor neurons was “protect motor neurons from excessive DNA methylation and apoptosis”. For the same compound, the “Reduction of differentiated SH-SY5Y cell viability” value in test [2] (1 μM, 24 hours) is given as 21.98%; in test [2] (1 μM, 48 hours), 15.47%; in test [2] (10 μM, 24 hours), 43.73%; in test [2] (10 μM, 48 hours), 33.89%; in test [2] (100 μM, 24 hours) it was 64.03%; in test [2] (100 μM, 48 hours), 53.43%. Besides, the IC50 in test [2] (from CI values at 24th hour, 1, 10 and 100 μM tested, read-out: IC50 Values 24h SH-SY5Y) is 1.49 µM; in test [2] (from CI values at 48th hour, 1, 10 and 100 μM tested, read-out: IC50 Values 48h SH-SY5Y), 9.6 µM; in the test with HMC3 microglia cells (from CI values at 24th hour, 1, 10 and 100 μM tested, read-out: IC50 Values 24h HMC3) it was above 400 µM; in the test with HMC3 microglia cells (from CI values at 48th hour, 1, 10 and 100 μM tested, read-out: IC50 Values 48h HMC3), above 400 µM. In addition, the “CI values compared to the control group” value in test [3] worked out at 120.7%. For the same compound, the “Reduction of HMC3 cell viability compared to the control group” value with HMC3 microglia cells (10 μM, 24 hours) was 3.12%; with HMC3 microglia cells (10 μM, 48 hours) it was 8.33%; in the test with HMC3 microglia cells (100 μM, 24 hours), 43.26%; with HMC3 microglia cells (100 μM, 48 hours), 57.56%.
